Data: PubChem BioAssay (NCI)
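Cultured in 96-well plates, cells were exposed to test compound for 48 hours across five concentrations. TGI is the concentration that stops growth completely.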

How the values were obtained:
Assay in all cases: growth of human tumour cells (NCI), 48 h
U251 CNS = tested on: U251 CNS
HL-60(TB) leukemia = tested on: HL-60(TB) leukemia
OVCAR-8 ovarian = tested on: OVCAR-8 ovarian
MOLT-4 leukemia = tested on: MOLT-4 leukemia
MDA-N = tested on: MDA-N
HCT-116 colon = tested on: HCT-116 colon
MDA-MB-435 = tested on: MDA-MB-435
NCI-H226 lung = tested on: NCI-H226 lung
UO-31 renal = tested on: UO-31 renal
OVCAR-5 ovarian = tested on: OVCAR-5 ovarian
ACHN renal = tested on: ACHN renal
OVCAR-3 ovarian = tested on: OVCAR-3 ovarian
A549 NSCLC = tested on: A549 NSCLC
SF-295 CNS = tested on: SF-295 CNS
IGROV1 ovarian = tested on: IGROV1 ovarian
NCI-H522 lung = tested on: NCI-H522 lung
SK-OV-3 ovarian = tested on: SK-OV-3 ovarian
K-562 leukemia = tested on: K-562 leukemia
OVCAR-4 ovarian = tested on: OVCAR-4 ovarian
MALME-3M melanoma = tested on: MALME-3M melanoma

Compound	TGI (U251 CNS) [µM]	TGI (HL-60(TB) leukemia) [µM]	TGI (OVCAR-8 ovarian) [µM]	TGI (MOLT-4 leukemia) [µM]	TGI (MDA-N) [µM]	TGI (HCT-116 colon) [µM]	TGI (MDA-MB-435) [µM]	TGI (NCI-H226 lung) [µM]	TGI (UO-31 renal) [µM]	TGI (OVCAR-5 ovarian) [µM]	TGI (ACHN renal) [µM]	TGI (OVCAR-3 ovarian) [µM]	TGI (A549 NSCLC) [µM]	TGI (SF-295 CNS) [µM]	TGI (IGROV1 ovarian) [µM]	TGI (NCI-H522 lung) [µM]	TGI (SK-OV-3 ovarian) [µM]	TGI (K-562 leukemia) [µM]	TGI (OVCAR-4 ovarian) [µM]	TGI (MALME-3M melanoma) [µM]
Nc1nncc2n[nH]nc12	> 100	> 100	> 100	91	> 100	> 100	> 100	> 100	> 100	> 100	> 100	> 100	> 100	> 100	> 100	–	–	–	–	–
COc1ccc(C/C=C(\C)CCO)cc1	> 100	–	> 100	> 100	> 100	> 100	> 100	–	> 100	> 100	> 100	> 100	> 100	> 100	> 100	> 100	> 100	> 100	> 100	–
C/C1=C\[C@@H](C)C[C@@H](C)OC(=O)[C@@H](C)NC(=O)[C@H](Cc2ccc(O)c(Br)c2)N(C)C(=O)CNC(=O)[C@H](C)C1	5.34	< 0.01	> 40.4	> 64.1	> 100	> 55.2	> 44.3	–	0.127	> 100	0.249	0.0243	> 100	5.55	0.033	–	5.26	> 100	–	9.83
COc1ccc2[nH]c3c(c2c1)CCc1c(OC)cccc1-3	> 100	–	> 100	> 100	> 100	> 100	> 100	> 100	> 100	> 100	> 100	> 100	> 100	> 100	> 100	> 100	> 100	> 100	> 100	> 100
CC(=O)/C(=C/N1CC(=O)NC1=S)C(=O)Nc1ccccc1C	> 100	> 100	> 100	> 100	> 100	> 100	> 100	–	> 100	> 100	> 100	> 100	> 100	> 100	> 100	–	> 100	–	> 100	–
COc1ccc(/C(=N/OCCCC(=O)O)c2cccs2)cc1	> 100	> 100	> 100	> 100	> 100	> 100	> 100	> 100	> 100	> 100	> 100	> 100	> 100	> 100	–	–	> 100	> 100	> 100	> 100
CC(C)CC(C#CCCOC(=O)c1ccccc1)OC(=O)c1ccccc1 (stereo not given)	> 10	> 10	> 10	> 10	> 10	> 10	> 10	> 10	> 10	> 10	> 10	> 10	> 10	> 10	> 10	–	> 10	> 10	–	> 10
Cc1cn(CCCCOC(=O)NC(CCCN=C(N)N)C(=O)O)c(=O)[nH]c1=O (stereo not given)	> 100	> 100	> 100	> 100	> 100	> 100	> 100	> 100	> 100	> 100	> 100	> 100	> 100	> 100	> 100	–	> 100	> 100	> 100	–
COc1c(C)c(C/C=C(\C)CC/C=C(\C)CC/C=C(\C)CC/C=C(\C)CCC=C(C)C)c(OC)c(OC)c1OC	> 100	–	46.1	> 100	> 100	> 100	> 100	–	70.4	> 100	33.3	> 100	48.1	44.2	60.3	31.4	> 100	55.1	52.3	–
Cn1c2ccccc2c2c3c(c4c5ccccc5n(C)c4c21)C(=O)N(Cc1ccccc1)C3=O	> 100	–	> 100	> 100	> 100	> 100	> 100	> 100	> 100	> 100	> 100	–	> 100	> 100	> 100	> 100	> 100	> 100	> 100	> 100
CCSC1=N/C(=C\c2ccco2)C(Nc2ccc(C)cc2)=N1	> 100	–	> 100	> 100	> 100	> 100	> 100	> 100	> 100	> 100	> 100	> 100	> 100	> 100	> 100	> 100	> 100	> 100	–	> 100
COc1ccc(CC2Cc3ccccc3CC(=O)N2)cc1OC (stereo not given)	> 100	> 100	> 100	65	> 100	> 100	> 100	> 100	> 100	> 100	> 100	> 100	> 100	> 100	> 100	–	> 100	> 100	> 100	> 100
COC(=O)c1ccc(NCC2=CC(=O)C=CC2=O)cc1O	> 100	–	30.8	> 100	35.8	33.8	82.9	44.7	25.4	36.9	26.8	24.7	> 100	32.3	41.6	–	42.5	> 100	30.3	28.6
CCCCCCCCCCCCCC(=O)OCC(CCS(=O)(=O)O[C@H]1CC[C@@]2(C)C(=CC[C@@H]3C2CC[C@]2(C)C(=O)CCC32)C1)OC(=O)CCCCCCCCCCCCC (stereo not given in full)	> 100	> 100	–	–	> 100	> 100	> 100	–	> 100	> 100	> 100	> 100	> 100	> 100	> 100	–	> 100	> 100	> 100	> 100
Cc1cn(C(CO)OC(CO)CN(O)C2C3CC4CC(C3)CC2C4)c(=O)[nH]c1=O (stereo not given)	> 100	> 100	> 100	> 100	> 100	> 100	> 100	> 100	> 100	> 100	> 100	–	> 100	> 100	> 100	–	> 100	> 100	> 100	–
CCCC(=O)Nc1cc(/C=C/C(=O)N2CC(CCl)c3ccc([N+](=O)[O-])cc32)n(C)c1 (stereo not given)	> 100	–	> 100	–	> 100	> 100	> 100	> 100	> 100	> 100	> 100	> 100	> 100	> 100	> 100	> 100	> 100	> 100	> 100	> 100
CCCNC(=O)Cn1c2c(c3ccccc31)CCCC2	–	> 100	> 100	> 100	> 100	> 100	> 100	–	89.9	> 100	> 100	> 100	> 100	> 100	> 100	–	> 100	> 100	> 100	> 100
COC(=O)Cc1cccc2c(=O)c(S(=O)(=O)NC(=O)Nc3ccc(Cl)cc3)c(-c3ccccc3)oc12	> 100	–	> 100	> 100	> 100	> 100	> 100	> 100	> 100	> 100	63.5	> 100	> 100	> 100	> 100	38.6	> 100	> 100	> 100	–
CC(=O)OC(OC(C)=O)c1c2ccccc2cc2ccccc12	> 100	> 100	41.8	16.9	63.7	28.3	> 100	37.7	53	75.6	61.4	67.3	65.9	45.3	55.9	–	52.4	27.8	–	–
Cc1cc2c3c(nc2c2cc[nH]c(C)c12)CCCC3	3.83	3.76	4.96	4.32	3.32	3.35	3.63	29.6	6.91	13.6	15	5.07	4.53	3.93	5.4	–	3.7	5.65	6.45	2.74
CC(C)(C)n1[nH]c(=O)n(C(C)(C)C)c1=O	> 100	> 100	–	> 100	> 100	> 100	> 100	–	> 100	> 100	> 100	> 100	> 100	> 100	–	–	> 100	> 100	> 100	–
